In US20100196311A1, “METHODS AND COMPOSITIONS CONTAINING mTOR INHIBITORS FOR ENHANCING IMMUNE RESPONSES” (priority 2009, published 2010):
Each block holds one compound with its values, some of them ahead of it.

Key:
[1] = test system: target cells loaded with gp100 25-33 epitope; experiment: In vivo CTL assay with Pmel-1 cells in C57/BL6 mice; set-up: species or system mouse; conditions: temsirolimus administered with the vaccine; 14 hours
Description: (§1) Consistent with this possibility, immunization with CA9+gp100 elicited a gp100-specific IFN-γ response from splenocytes using an ELISPOT assay. […] Further, specific killing increased with temsirolimus treatment in an in vivo CTL assay. Pmel-1 cells were adoptively transferred to C57/BL6 mice and immunized with gp100+CA9 with or without temsirolimus. Pmel-1 cells are transgenic cells that recognize the H-2 Db-restricted epitope corresponding to amino acids 25-33 of gp100.13 Target cells loaded with the H-2 Db-restricted epitope were injected and monitored 14 hours later by flow cytometry. […] When temsirolimus was administered with the vaccine, specific killing increased to 78%.

[2] = test system: RENCA (renal cancer cells); experiment: In vitro growth of RENCA cells; format: cell-based, mouse
[3] = test system: B16 tumors expressing gp100; experiment: Melanoma model: B16-gp100 tumors in C57/BL6 mice, vaccine with or without temsirolimus; format: in vivo, mouse; conditions: vaccine gp100+CA9; treated 10 days after implantation
Description: FIG. 9. mTOR inhibition with temsirolimus enhanced the antitumor effects of a cancer vaccine (complex of gp100 and CA9) in C57/BL6 mice treated 10 days after implantation of B16 tumors expressing gp100. Each line represents tumor growth in a single mouse. To generate the vaccine, gp100 (antigen target) and CA9 (adjuvant) were complexed at 1:1 molar ratio by incubating at RT for 30 min. On day 0, 2×10^5 B16-gp100 cells were implanted into mice. The vaccine was administered i.d. on days 10, 17 and 24. Temsirolimus was inject i.p. on days 11 to 16, 18 to 23 and 25 to 30.
(§2) In the RCC model, a heat shock protein (HSP) served as an immune adjuvant and was complexed to a target antigen, carbonic anhydrase IX (CA9), which is expressed by 90% of clear cell RCCs. Balb/c mice were implanted with syngeneic RENCA tumors engineered to express CA9. In a treatment model targeting established tumor implants, mice were treated 10 days after implantation with tumor vaccine with or without temsirolimus (FIG. 8). […] In this model, CA9 was complexed to a melanoma antigen, gp100. C57/BL6 mice were implanted with syngeneic B16 tumors engineered to express gp100; mice were treated 10 days later with tumor vaccine. Similar results were obtained using a murine ovarian cancer model where the vaccine was augmented with rapamycin.

[4] = test system: RENCA tumors expressing CA9; experiment: Renal cell carcinoma model: RENCA-CA9 tumors in Balb/c mice, vaccine with or without temsirolimus; format: in vivo, mouse
Description: FIG. 8. Renal Cell Carcinoma model. mTOR inhibition with temsirolimus enhanced the antitumor effects of a cancer vaccine (complex of hsp110 and CA9) in Balb/C mice 10 days after implantation of RENCA tumors expressing the tumor antigen CA9. Each line represents tumor growth in a single mouse. To generate the vaccine, CA9 (antigen target) and HSP110 (heat shock protein adjuvant) were complexed at 1:1 molar ratio by incubating at 43° C. for 30 min. On day 0, 2×10^5 Renca-CA9 cells were implanted into mice. The vaccine was administered i.d. on days 10, 17 and 24. Temsirolimus was inject i.p. on days 11 to 16, 18 to 23 and 25 to 30.
as §2

B16 melanoma = experiment: In vitro growth of B16 melanoma; format: cell-based, mouse
gp100 = experiment: gp100-specific IFN-γ ELISPOT of splenocytes after immunization; format: in vivo, mouse; conditions: concurrent treatment with temsirolimus; p<0.05
Description: FIG. 10. Immunization with CA9+gp100 elicited a gp100-specific IFN-γ response measured using the ELISPOT assay.
as §1

T-bet = T-bet mRNA and protein expression in OT-I cells; format: cell-based, mouse
Description: FIG. 4. IL-12-Enhanced mTOR Phosphorylation Is Essential for T-bet-Determined Type I Effector Maturation of CD8^+ T Cells. (A-C) OT-I cells stimulated with Ag+B7.1 (±) IL-12 and rapamycin were evaluated for (A) mRNA for T-bet at the indicated time points by RT-PCR, (B) T-bet protein expression at the indicated time-points by ICS, and (C) T-bet protein expression by ICS before and after antigen recall. **p<0.0035; ***p<0.0005. (D) WT and Tbx21^−1− OT-I cells were stimulated with Ag+B7.1 (±) IL-12 and evaluated for IFN-γ production at the primary and secondary phase. ***p<0.0001. (E and F) OT-I cells stimulated with Ag+B7.1 (±) IL-12 and rapamycin were transduced with T-bet-ER retroviral vector (±) 4-HT (10 nM) and evaluated by ICS for (E) T-bet protein expression by ICS and (F) IFN-γ at secondary phase (168 hr). (G and H) OT-I cells stimulated with Ag+B7.1 (±) insulin (1 U/ml) and rapamycin were evaluated by ICS for (G) S6K phosphorylation at 48 hr and (H) T-bet expression at 72 hr. Experiments shown are representative of at least three (A, B, D, E, and F) and two (C, G, and H) independent experiments with similar outcomes. (Data are presented as mean±SEM).
Retroviral Transduction and T-Bet Induction. T-bet-ER RV (Estrogen Responsive Retro Viral Vector) was cotransfected into Platinum-E cells together with the retroviral packaging vector pCL-Eco using LipoD293 DNA in vitro transfection reagent (SignaGen Laboratories) following the manufacturer's instructions. The medium was replaced the following day, and retroviral supernatant was collected 3 days after transfection. For transduction, naive OT-I cells stimulated for 24 hr, were suspended in retroviral supernatant containing polybrene (8 μg/ml; Sigma-Aldrich), and were spin-transduced at 2200 rpm for 90 min at 30° C. After spin-transduction, cells were cultured in fresh medium containing the same polarizing milieu as before, along with the addition of 4-HT (10 nM). At the end of 72 hr after initial stimulation, cells were washed thrice and maintained in the absence of any stimulation but in the presence of 4-HT and IL-7 (10 ng/ml).
Because the sustained expression of T-bet is necessary and sufficient for imprinting type I effector cell fate (Matsuda et al., 2007) and mTOR inhibition reversed IL-12 imprinted type I effector maturation in OT-I cells (FIG. 3), we next sought to determine whether rapamycin treatment affects T-bet expression in OT-I cells by performing kinetic analysis of T-bet mRNA expression (FIG. 4A). […] Moreover, inhibition of mTOR activity at 12 hr was also able to achieve loss in T-bet expression, similar to the observed loss in type I effector maturation (FIG. 3E).

mTOR = biological target: T1, mTOR (Mus musculus, UniProt P26883+Q9JLN9); experiment: mTOR activity (mTOR, S6K and S6 phosphorylation by ICS) in stimulated OT-I cells; format: cell-based
T1 construct: endogenous in cells; host or cells: naive OT-I CD8+ T cells (TCR transgenic Rag2-/- mice) stimulated with Ag+B7.1 +/- IL-12
Description: FIG. 1. […] (A and B) OT-I cells stimulated with BOK (Ag+B7.1) (±) IL-12 were evaluated for (A) IFN-γ by ICS and (B) cytolytic activity (primary, 72 hr poststimulation; secondary, 24 hr postsecondary stimulation); ***p<0.0002. (C-E) OT-I cells stimulated with antigen (Ag) (the antigen is a peptide consisting of Ser Ile Ile followed by Asn Phe Glu which are followed by Lys and Lue (OVAp), used at 10 nM) plus B7.1 (100 μg/ml)(Ag+B7.1)(±) IL-12 (2 ng/ml) were evaluated by ICS at the indicated time points for (C) phosphorylated mTOR, (D) phosphorylated S6K, and (E) phosphorylated ribosomal S6. For mTOR inhibition, rapamycin (20 ng/ml) was added 30 min prior to addition of antigen, cytokine Data are representative of at least three independent experiments with similar outcomes. (Data are presented as mean±SEM.)
(§3) Stimulation of OT-1 Cells. Naive OT-I cells were stimulated with latex microspheres expressing H-2K^b/ovalbumin antigen and B7.1 according to known techniques. Naive OT-II cells were stimulated with anti-CD3-/anti-CD28-coated latex beads. In some experiments, the cell line derived from embryonic fibroblasts, namely, BOK (MEC.B7.SigOVA: expressing H-2K^b, OVAp and B7.1, were used as antigen-presenting cells to stimulate naive OT-I cells according to known techniques.
Although the kinase mTOR has been implicated as an integrator of various extracellular signals and a sensor for internal energy levels for determination of cell fate, the role for mTOR in integrating instructions that program naive CD8^+ T cells for type I effector differentiation is unclear. First, we tested the ability of Ag and B7.1 (Ag+B7.1) in the presence or absence of IL-12 to activate mTOR in OT-I cells at various time points after stimulation. Stimulation of naive OT-I cells with Ag+B7.1 induced mTOR phosphorylation (activation) by 2 hr, which was maximal at 12 hr and barely detectable by 48 hr (FIG. 1C). Remarkably, IL-12 addition enhanced Ag+B7.1-induced mTOR phosphorylation at 2 hr, which was maintained at 48 hr after stimulation (FIG. 1C). […] To verify that the induction of mTOR phosphorylation also led to its kinase activity, we monitored the kinetics of p70 S6K phosphorylation (Ser 371), a direct target of mTOR kinase activity. Although both Ag+B7.1 and Ag+B7.1 plus IL-12 induced similar amounts of S6K phosphorylation at 12 hr (maximal), the presence of IL-12 was able to sustain the S6K phosphorylation up to 48 hr (FIG. 10), in correlation with mTOR phosphorylation (FIG. 1C). […] The Ag+B7.1±IL-12 stimulation-induced S6K and S6 phosphorylation in OT-I cells was blocked by rapamycin (specific inhibitor of mTOR complex-1) (FIGS. 1D and 1E), thus confirming the ability of instructions to activate mTOR and its kinase activity in OT-I cells. […]

OT-I cells = experiment: Type I effector functions (IFN-γ, CTL activity, Granzyme B) of OT-I cells, primary and secondary phase; format: cell-based, mouse; conditions: T-bet-ER-transduced; tamoxifen 10 nM; secondary phase
Description: FIG. 3. Sustained mTOR Activity Is Essential for Heritable Type I Effector Differentiation of CD8^+ T Cells. […] (D and E) OT-I cells were stimulated with Ag+B7.1 (±) IL-12 and rapamycin was added 12 hr after stimulation to evaluate cells for (D) S6K phosphorylation at 48 hr and (E) IFN-γ production at the primary and secondary phase. Experiments shown are representative of at least three (A and B) and two (C-E) independent experiments with similar outcomes. (Data are presented as mean±SEM.)
as §3
Evaluation of Secondary Antigen-Recall Responses In Vitro. For studying secondary antigen-recall response in vitro; OT-I cells harvested at 72 hr (primary) were washed thrice with medium and recultured (1×10^5/ml) for an additional 72 hr in a 24-well plate with IL-7 (10 ng/ml) only. At 144 hr the cells were harvested, washed thrice with medium, had numbers adjusted (5×10^5), and were restimulated with Ag/B7.1 only for an additional 24 hr (secondary stimulation). At 168 hr, the cells recovered were evaluated by flow cytometry and in vitro functional assay.
Because the presence of IL-12 during antigen stimulation augments mTOR activity and is deterministic for type I effector maturation, we analyzed whether sustained mTOR kinase activity is required for IL-12-programmed type I effector functions in OT-I cells. To do so, we stimulated naive OT-I cells with BOK±IL-12, and rapamycin and effector functions were analyzed from the primary and secondary activated OT-I pool. […] In addition, we observed a block in IL-12-induced IFN-γ production and CTL activity upon rapamycin treatment at 144 hr after primary stimulation.

[5] = 2-DG added to Ag+B7.1 and IL-12-stimulated OT-I cells

Compound: CO[C@H]1C[C@@H]2CC[C@@H](C)[C@@](O)(O2)C(=O)C(=O)N2CCCC[C@H]2C(=O)O[C@H]([C@H](C)C[C@@H]2CC[C@@H](OC(=O)C(C)(CO)CO)[C@H](OC)C2)CC(=O)[C@H](C)/C=C(\C)[C@@H](O)[C@@H](OC)C(=O)[C@H](C)C[C@H](C)/C=C/C=C/C=C/1C [temsirolimus]
- Specific killing [1]: 78%
- Growth in vitro [2]: direct effect
- Tumor growth, combination of vaccine and temsirolimus [3]: greatest effect
- Tumor growth, agent alone ([4]; treatment from 10 days after implantation): decrease
- Tumor growth, combination of vaccine and temsirolimus ([4]; vaccine i.d. days 10, 17, 24, temsirolimus i.p. between): greatest effect
- Growth in vitro (B16 melanoma): no effect
- gp100-specific IFN-γ response from splenocytes (gp100): significantly augmented

- mTOR activity (mTOR; [5]): loss
Compound: O=CC[C@@H](O)[C@H](O)[C@H](O)CO [2-DG, 2-deoxyglucose]
- T-bet expression (T-bet; [5]): loss

- mTOR activity (S6 Kp) (mTOR; insulin (1 U/ml) added to Ag+B7.1-stimulated OT-I cells, 48 hr): enhanced
Compound: insulin
- T-bet expression (T-bet; insulin (1 U/ml) added to Ag+B7.1-stimulated OT-I cells, 72 hr): increase

Compound: CC/C(=C(\c1ccccc1)c1ccc(OCCN(C)C)cc1)c1ccccc1 [tamoxifen]
- T-bet expression in T-bet-ER-transduced OT-I cells (T-bet; tamoxifen 10 nM): substantial increase
- IFN-γ production in rapamycin-treated IL-12-conditioned OT-I cells (OT-I cells): restored
